Assay [1] relates to MKN1 cells (KRAS amplification). In words: Cell-based pERK HTRF assay in MKN1 cells (Biological Example 5). How it is done: (§1) Biological Example 5: Cell-based PERK HTRF assay in AsPC-1, SW1900, HPAC, Capan-2, RKN, H358, HCT116, KP-2, H1573, A549, MKN1, and HT1080 cells
(§2) The inhibition of ERK phosphorylation, as measured using the HTRF Advanced Phospho-ERK 1/2 (Thr202/Tyr204) Detection Assay kit (Perkin Elmer), was used to determine the effectiveness of test compounds in disrupting KRAS-driven protein/effector signaling in cells.
(§3) On day 1, cells were seeded into 96-well plates at 2.5×10^4 cells/well in 100 μL of complete growth media supplemented with 10% fetal bovine serum (FBS) and incubated at 37° C., in the presence of 5% CO2.
(§4) On day 2, cells were treated with compounds diluted in DMSO at 0.25% final DMSO concentration. Compounds were dosed in a 9-point concentration curve with three-fold dilution between concentrations. Cells were incubated in the presence of compound for two hours at 37° C. Following this treatment period, cells were harvested by aspirating the media, adding 40 μL of kit-supplied 1x lysis buffer per well, and shaking for 30 minutes at 250 rpm at room temperature.
(§5) Following cell lysis, samples were homogenized by pipetting up and down twenty times and 16 μL of cell lysate per well was transferred from the 96-well cell culture plate to two wells of a 384-well detection plate. A complete detection buffer was prepared by diluting D2 and Eu Cryptate antibodies 1:20 in kit-provided detection solution, 4 μL of complete detection buffer was then added to each well with lysate. Plates were incubated with gentle rocking for 24 hours at 4° C.
(§6) Following this incubation period, plates were centrifuged at 500×g for one minute and analyzed on a CLARIOstar plate reader. Data was imported into Microsoft Excel and the signal from the 665 nm channel was divided by the signal from the 620 nm channel. % pERK was calculated as: […]
(§7) Data was imported to the Prism software package (Graphpad) and EC50 values were calculated using the log (inhibitor) vs, response—variable slopc (Four parameters) model.

The test system of assay [2] is H1573 cells (KRAS G12A). In words: Cell-based pERK HTRF assay in H1573 cells (Biological Example 5). How it is done: as §1, §2, §3, §4, §5, §6, §7
Assay [3] has as its system HT1080 cells (NRAS). Put plainly: Cell-based pERK HTRF assay in HT1080 cells (Biological Example 5). On the procedure:
as §1, §2, §3, §4, §5, §6, §7

The test system of assay [4] is SW1900 cells (KRAS G12D). Put plainly: Cell-based pERK HTRF assay in SW1900 cells (Biological Example 5). How it is done:
as §1, §2, §3, §4, §5, §6, §7

The subject of the next assay is HPAC cells (KRAS G12D). In words: 3D Cell viability assay in HPAC cells (Biological Example 6). The class given is cell-based. Particulars: HPAC (KRAS G12D) spheroids. The gist of the method: (§8)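 Luminescent ATP read-out (CellTiter-Glo 3D) after 72 h compound exposure gives viability of preformed spheroids. Cells were seeded at 1000 per well in low-attachment plates and left 48 h to aggregate before dosing with nine three-fold concentrations at 0.25% DMSO.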

For assay [5], the system named is Capan-2 cells (KRAS G12V). In words: 3D Cell viability assay in Capan-2 cells (Biological Example 6). Format: cell-based. Particulars: Capan-2 (KRAS G12V) spheroids, 72 hours. How it is done:
(§9) Biological Example 6: 3D Cell viability assay in AsPC-1, SW1900, HPAC, Capan-2, RKN, H358, HCT116, KP-2, H1573, A549, MKN1, and HT1080 cells
(§10) The inhibition of cellular viability as a result of test compound treatment in a spheroid assay was measured using the CellTiter-Glow 3D Cell Viability Assay (Promega).
(§11) On Day 1, 1000 cells per well were seeded in 150 μL of complete growth media supplemented with 10% fetal bovine serum (FBS) and incubated at 37° C., in the presence of 5% CO2 in 96-well ultra-low attachment microplates (Corning) for 48 hours undisturbed to allow spheroids to form.
(§12) Following spheroid formation, cells were treated with compounds diluted in DMSO at 0.25% final DMSO concentration. Compounds were dosed in a 9-point concentration curve with three-fold dilution between concentrations. Cells were incubated in the presence of compound for 72 hours at 37° C., in the presence of 5% CO2.
(§13) Following this incubation period, the kit-provided CTG reagent was allowed to equilibrate for 30 minutes at room temperature, 150 μL of equilibrated CTG reagent was added to each well, and the plate was sealed before shaking at 250 rpm for 10 minutes at room temperature to lyse the cells, 150 μL of lysate per well was transferred to a 96-well plate and luminescence was read on a CLARIOstar plate reader.
(§14) Data was imported into the Prism software package (Graphpad) and EC50 values were calculated using the log (inhibitor) vs, response—variable slope (Four parameters) model.

Assay [6] relates to H1573 cells (KRAS G12A). In words: 3D Cell viability assay in H1573 cells (Biological Example 6). Format: cell-based. To be noted: H1573 (KRAS G12A) spheroids, 72 hours. How it is done:
as §9, §10, §11, §12, §13, §14

Assay [7] concerns A549 cells (KRAS G12S). Put plainly: 3D Cell viability assay in A549 cells (Biological Example 6). Format: cell-based. Particulars: A549 (KRAS G12S) spheroids, 72 hours. On the procedure: as §9, §10, §11, §12, §13, §14
The test system of assay [8] is Capan-2 cells (KRAS G12V). In words: Cell-based pERK HTRF assay in Capan-2 cells (Biological Example 5). How it is done:
as §1, §2, §3, §4, §5, §6, §7

The test system of assay [9] is A549 cells (KRAS G12S). In words: Cell-based pERK HTRF assay in A549 cells (Biological Example 5). On the procedure: as §1, §2, §3, §4, §5, §6, §7
Assay [10] relates to HCT116 cells (KRAS G13D). In words: 3D Cell viability assay in HCT116 cells (Biological Example 6). The class given is cell-based. To be noted: HCT116 (KRAS G13D) spheroids, 72 hours. The gist of the method: as §8
Assay [11] relates to HCT116 cells (KRAS G13D). Put plainly: Cell-based pERK HTRF assay in HCT116 cells (Biological Example 5). How it is done:
as §1, §2, §3, §4, §5, §6, §7

Assay [12] deals with HT1080 cells (NRAS). Put plainly: 3D Cell viability assay in HT1080 cells (Biological Example 6). Format: cell-based. To be noted: HT1080 (NRAS) spheroids, 72 hours. The gist of the method: as §8
Assay [13] deals with RKN cells (KRAS G12V). In words: Cell-based pERK HTRF assay in RKN cells (Biological Example 5). On the procedure: as §1, §2, §3, §4, §5, §6, §7
Assay [14] relates to RKN cells (KRAS G12V). Put plainly: 3D Cell viability assay in RKN cells (Biological Example 6). The class given is cell-based. Particulars: RKN (KRAS G12V) spheroids, 72 hours. On the procedure:
as §9, §10, §11, §12, §13, §14

The subject of assay [15] is SW1900 cells (KRAS G12D). In words: 3D Cell viability assay in SW1900 cells (Biological Example 6). The class given is cell-based. To be noted: Homo sapiens; SW1990 (text: SW1900, KRAS G12D) spheroids, 72 hours. A digest of the protocol: as §8
Where [16] appears, read: Homo sapiens, MKN-1, MKN cells (MKN1, KRAS amplification).
Setting [17] is: Homo sapiens, SW1990, SW1990 cells (text: SW1900, KRAS G12D).
Where [18] appears, read: Homo sapiens, Capan-2, Capan-2 (KRAS G12V) cells.

Each structure is given as a SMILES string.

Turning to `N#Cc1c(N)sc2c(F)ccc(-c3c(C(F)(F)F)cc4c(N5CCOCC5)nc(OC[C@@]56CCCN5C[C@H](F)C6)nc4c3F)c12` (single isomer, unassigned) [Compound 198], the IC50 in assay [1] (setting [16]) is at most 100 nM; in the assay with H1573 cells (KRAS G12A) [2] (Homo sapiens, NCI-H1573), at most 100 nM; in the assay on HT1080 cells (NRAS) [3] (Homo sapiens, HT-1080), above 1000 nM; in the assay on SW1900 cells (KRAS G12D) [4] (setting [17]), at most 100 nM; in the assay on HPAC cells (KRAS G12D) (Homo sapiens, HPAC, 72 h) it was 100 to 1000 nM; in [5] (Homo sapiens), at most 100 nM. Also, the half-maximal inhibitory concentration (IC50) with H1573 cells (KRAS G12A) [6] (Homo sapiens, NCI-H1573) was at most 100 nM; with A549 cells (KRAS G12S) [7] (Homo sapiens) it was at most 100 nM; in assay [8] (setting [18]) it was at most 100 nM; in the assay on A549 cells (KRAS G12S) [9] (Homo sapiens), 100 to 1000 nM; in the assay with HCT116 cells (KRAS G13D) [10] (Homo sapiens, HCT-116), at most 100 nM; in the assay on HCT116 cells (KRAS G13D) [11] (Homo sapiens, HCT-116), at most 100 nM. Besides, in the assay on HT1080 cells (NRAS) [12] (Homo sapiens, HT-1080), the IC50 was above 1000 nM.

Turning to `CN(c1nc(OC[C@@]23CCCN2C[C@H](F)C3)nc2c(F)c(-c3ccc(F)c4sc(N)c(C#N)c34)c(C(F)(F)F)cc12)[C@H]1C[C@@H](O)C1` [Compound 19, 2-amino-7-fluoro-4-((S)-8-fluoro-2-(((2R,7aS)-2-fluorotetrahydro-1H-pyrrolizin-7a(5H)-yl)methoxy)-4-(((1s,3R)-3-hydroxycyclobutyl)(methyl)amino)-6-(trifluoromethyl)quinazolin-7-yl)benzo[b]thiophene-3-carbonitrile], the IC50 is at most 100 nM in [1] (MKN cells (MKN1, KRAS amplification)); at most 100 nM in the assay with H1573 cells (KRAS G12A) [2]; above 1000 nM in the assay on HT1080 cells (NRAS) [3]; at most 100 nM in the assay on SW1900 cells (KRAS G12D) [4] (SW1990 cells (text: SW1900, KRAS G12D)); 100 to 1000 nM with HPAC cells (KRAS G12D) (72 hours); 100 to 1000 nM in assay [5]. For the same molecule, the IC50 was at most 100 nM in the assay on H1573 cells (KRAS G12A) [6]; 100 to 1000 nM with A549 cells (KRAS G12S) [7]; at most 100 nM in assay [8] (Capan-2 (KRAS G12V) cells); at most 100 nM with RKN cells (KRAS G12V) [13]; 100 to 1000 nM in the assay with A549 cells (KRAS G12S) [9]; at most 100 nM in the assay on RKN cells (KRAS G12V) [14]. Further, the results for the IC50 in the assay with HCT116 cells (KRAS G13D) [10], with HCT116 cells (KRAS G13D) [11] and with HT1080 cells (NRAS) [12] were at most 100 nM, at most 100 nM and above 1000 nM, respectively.

For the molecule `N#Cc1c(N)sc2c(F)ccc(-c3c(C(F)(F)F)cc4c(N5CCC[C@@H](O)C5)nc(OC[C@@]56CCCN5C[C@H](F)C6)nc4c3F)c12` [Compound 234], the IC50 with SW1900 cells (KRAS G12D) [15] was at most 100 nM; in assay [1] (setting [16]) it was at most 100 nM; in the assay on H1573 cells (KRAS G12A) [2] (Homo sapiens, NCI-H1573) it was at most 100 nM; in the assay with HT1080 cells (NRAS) [3] (Homo sapiens, HT-1080) it was above 1000 nM; with SW1900 cells (KRAS G12D) [4] (setting [17]) it was at most 100 nM; in the assay on HPAC cells (KRAS G12D) (Homo sapiens, HPAC, 72 h), above 1000 nM. The IC50 was at most 100 nM with H1573 cells (KRAS G12A) [6] (Homo sapiens, NCI-H1573); at most 100 nM in the assay on A549 cells (KRAS G12S) [7] (Homo sapiens); at most 100 nM in assay [8] (setting [18]); at most 100 nM in the assay with A549 cells (KRAS G12S) [9] (Homo sapiens); 100 to 1000 nM in the assay with HCT116 cells (KRAS G13D) [10] (Homo sapiens, HCT-116); at most 100 nM in the assay with HCT116 cells (KRAS G13D) [11] (Homo sapiens, HCT-116). For the same molecule, the IC50 in the assay on HT1080 cells (NRAS) [12] (Homo sapiens, HT-1080) is above 1000 nM.

The values are drawn from patent US20260042764A1, “COMPOSITIONS AND METHODS FOR INHIBITION OF KRAS” (TheRas, Inc., priority 2022, published 2026).
